1 substance from US20230324382A1, “ANTIPHOSPHOLIPID ANTIBODIES FOR THE DIAGNOSIS OF LYME DISEASE” (Trustees of Tufts College, priority 2022, published 2023) can be followed below.

For one test, the system named is E. coli. In words: Incorporation of NBD-PC, other species. The following applies: 25 μM NBD-PC, 4 hours. In kind it is cell-based, Escherichia coli MG1655. The method, then:
(§1) Cells were grown to a stationary phase (5 days) in BSK and then pelleted (5 minutes at 3220 g), washed once in an equal volume of PBS, and resuspended in an equal volume of dBSK. The cell suspension (1 mL) was added to nitrobenzoxadiazole-labeled (NBD-labeled) phospholipids (Avanti) to 25 μM. At hourly intervals, the cells were pelleted (5 minutes at 18,800 g), washed 3 times in 1 mL PBS, and resuspended in 100 μL PBS. The suspensions were transferred onto clear-bottomed, opaque 96-well plates (Corning), and fluorescence was recorded at excitation 460 nm/emission 540 nm (Ex460/Em540). Staphylococcus aureus 502a and Escherichia coli MG1655 were grown overnight in tryptic soy broth (TSB): tryptone (17.0 g/L), soytone (3.0), glucose (2.5), sodium chloride (5.0), and dipotassium phosphate (2.5). Incorporation of NBD-phospholipids was carried out in TSB, with subsequent washing and measurement as above.
(§2) After fluorescence measurements, 5 μL cell suspensions were spotted onto glass slides and fixed with 5 μL ProLong Gold (Thermo Fisher Scientific) with DAPI. […] For all 3 bacterial species imaged, the laser power was calibrated such that minimal autofluorescence was detected in unlabeled cells prior to imaging of the labeled cells.

The subject of another test is S. aureus. In words: Incorporation of NBD-PC, other species. The class given is cell-based, Staphylococcus aureus 502a. As to conditions: 25 μM NBD-PC, 4 hours. The method, then: as §1, §2
The test system of the next test is B. burgdorferi. Kind of test: Retention of NBD-PC in the membrane after transfer to rich medium. The class given is cell-based, Borrelia burgdorferi. From the text: FIG. 12 is a graph illustrating that phospholipids are retained in the membrane in the absence of an environmental source. B. burgdorferi was labelled with NBD-PC in lipid-depleted dBSK medium for four hours, washed, and resuspended in rich medium. […] Points are the mean of three biological replicates, with error bars the standard deviation.
This is indicative of nonspecific uptake and is consistent with a model of random diffusion into the membrane. Fluorescence was detectable for up to 4 days after the initial labeling, with a half-life of approximately 1 day (FIG. 12).

As to NBD-PC, the “entry of fluorescent phospholipid into membranes” value in the test with E. coli and with S. aureus was “did not enter the membranes” in each case. For the same substance, the results for the “fluorescence intensity as % of D0” value in the test on B. burgdorferi (day 1) and in the test with B. burgdorferi (day 4) were 56% and around 7%, respectively.
